Source: US20250018046A1, “COMPOUNDS FOR TARGETING DEGRADATION OF IRAK4 PROTEINS” (BIOGEN MA INC, priority 2021, published 2025)

biological target: T1, IRAK4 (Homo sapiens, UniProt Q9NWZ3); experiment: IRAK4 degradation assay using the HiBiT Method; format: cell-based; details: 293T cells expressing HiBiT-tagged IRAK4; 6-hour incubation; Nano-Glo HiBiT Lytic Assay luminescence
T1 construct: knocking-in a HiBiT fusion tag into the C-terminal of the IRAK4 gene in 293T cells; host or cells: 293T cells, knock-in of HiBiT at the endogenous IRAK4 locus
T1 sequence (Q9NWZ3 1-460): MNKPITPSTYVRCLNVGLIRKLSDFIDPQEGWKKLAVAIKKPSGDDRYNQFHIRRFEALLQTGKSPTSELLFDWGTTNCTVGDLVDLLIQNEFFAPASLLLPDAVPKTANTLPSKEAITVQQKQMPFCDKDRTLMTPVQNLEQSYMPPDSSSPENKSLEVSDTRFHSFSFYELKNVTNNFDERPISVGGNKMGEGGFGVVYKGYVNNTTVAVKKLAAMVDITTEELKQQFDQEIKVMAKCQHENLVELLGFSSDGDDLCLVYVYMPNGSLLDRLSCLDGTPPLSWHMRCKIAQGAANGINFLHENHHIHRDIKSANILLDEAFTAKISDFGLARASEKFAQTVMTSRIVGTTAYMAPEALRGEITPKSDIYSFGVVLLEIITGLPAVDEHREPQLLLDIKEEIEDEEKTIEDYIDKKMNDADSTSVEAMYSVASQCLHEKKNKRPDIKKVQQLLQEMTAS
In short: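 HEK293T cells with HiBiT knocked into the IRAK4 C-terminus, 10,000 cells per well, treated with an 11-point half-log series […] in duplicate for 6 hours at 37° C., 5% CO2. Remaining IRAK4 quantified by Nano-Glo HiBiT lytic luminescence against DMSO controls.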

| DC50 | Structure (SMILES) |
| --- | --- |
| 10 to 100 nM | Cc1cc(-c2nc(C(=O)Nc3cn4cc(C5CCN(CC(=O)N6CCC(c7ccc(NC8CCC(=O)NC8=O)cc7)CC6)CC5)nc4cc3OC(C)C)co2)ccn1 (stereo not shown) [Example 58, N-(2-(1-(2-(4-(4-((2,6-dioxopiperidin-3-yl)amino)phenyl)piperidin-1-yl)-2-oxoethyl)piperidin-4-yl)-7-isopropoxyimidazo[1,2-a]pyridin-6-yl)-2-(2-methylpyridin-4-yl)oxazole-4-carboxamide] |
| 100 to 500 nM | CC(C)Oc1cc2nc(C3CCN(CC(=O)N4CCC(c5ccc(CN6CCC(=O)NC6=O)cc5)CC4)CC3)cn2cc1NC(=O)c1cccc(C(F)(F)F)n1 [Example 25, N-[2-[1-[2-[4-[4-[(2,4-dioxohexahydropyrimidin-1-yl)methyl]phenyl]-1-piperidyl]-2-oxo-ethyl]-4-piperidyl]-7-isopropoxy-imidazo[1,2-a]pyridin-6-yl]-6-(trifluoromethyl) pyridine-2-carboxamide] |
| 10 to 100 nM | Cc1cc(NC2CCC(=O)NC2=O)ccc1C1CCN(C(=O)CN2CCC(c3cn4cc(NC(=O)c5cccc(C(F)(F)F)n5)c(OC(C)C)cc4n3)CC2)CC1 (stereo not shown) [Example 87, N-[2-[1-[2-[4-[4-[(2,6-dioxo-3-piperidyl)amino]-2-methyl-phenyl]-1-piperidyl]-2-oxo-ethyl]-4-piperidyl]-7-isopropoxy-imidazo[1,2-a]pyridin-6-yl]-6-(trifluoromethyl) pyridine-2-carboxamide] |
| 100 to 500 nM | CC(C)Oc1cc2nc(C3CCN(C(=O)c4ccccc4CNC(=O)c4ccc(OC5CCC(=O)NC5=O)cc4)CC3)cn2cc1NC(=O)c1cccc(C(F)(F)F)n1 (stereo not shown) [Example 82, N-[2-[1-[2-[[[4-[(2,6-dioxo-3-piperidyl)oxy]benzoyl]amino]methyl]benzoyl]-4-piperidyl]-7-isopropoxy-imidazo[1,2-a]pyridin-6-yl]-6-(trifluoromethyl)pyridine-2-carboxamide] |
| 10 to 100 nM | CC(C)Oc1cc2nc(C3CCN(CCc4ccc(NC5CCC(=O)NC5=O)cc4)CC3)cn2cc1NC(=O)c1cccc(C(F)(F)F)n1 (stereo not shown) [Example 68, N-[2-[1-[2-[4-[(2,6-dioxo-3-piperidyl)amino]phenyl]ethyl]-4-piperidyl]-7-isopropoxy-imidazo[1,2-a]pyridin-6-yl]-6-(trifluoromethyl)pyridine-2-carboxamide] |
| 100 to 500 nM | CC(C)Oc1cc2nc([C@H]3CC[C@H](CN4CCC(c5cccc(NC6CCC(=O)NC6=O)c5F)CC4)CC3)cn2cc1NC(=O)c1cccc(C(F)(F)F)n1 (stereo partly shown) [Example 38, N-[2-[4-[[4-[3-[(2,6-dioxo-3-piperidyl)amino]-2-fluoro-phenyl]-1-piperidyl]methyl]cyclohexyl]-7-isopropoxy-imidazo[1,2-a]pyridin-6-yl]-6-(trifluoromethyl)pyridine-2-carboxamide] |
| 10 to 100 nM | CC(C)Oc1cc2nc(C3CCN(C(=O)CCN4CCC(c5ccc(NC6CCC(=O)NC6=O)cc5F)CC4)CC3)cn2cc1NC(=O)c1cccc(C(F)(F)F)n1 (stereo not shown) [Example 8, N-[2-[1-[3-[4-[4-[(2,6-dioxo-3-piperidyl)amino]-2-fluoro-phenyl]-1-piperidyl]propanoyl]-4-piperidyl]-7-isopropoxy-imidazo[1,2-a]pyridin-6-yl]-6-(trifluoromethyl)pyridine-2-carboxamide] |
| 100 to 500 nM | CC(C)Oc1cc2nc(C3CCCN(C(=O)CN4CCC(c5ccc(C6CCC(=O)NC6=O)cc5)CC4)C3)cn2cc1NC(=O)c1cccc(C(F)(F)F)n1 (stereo not shown) [Example 76, N-[2-[1-[2-[4-[4-(2,6-dioxo-3-piperidyl)phenyl]-1-piperidyl]acetyl]-3-piperidyl]-7-isopropoxy-imidazo[1,2-a]pyridin-6-yl]-6-(trifluoromethyl)pyridine-2-carboxamide] |
| 10 to 100 nM | CC(C)Oc1cc2nc(C3CCN(CC(=O)N4CCN(c5ccc(C6CCC(=O)NC6=O)cc5)CC4)CC3)cn2cc1NC(=O)c1cccc(C(F)(F)F)n1 (stereo not shown) [Example 22, N-[2-[1-[2-[4-[4-(2,6-dioxo-3-piperidyl)phenyl]piperazin-1-yl]-2-oxo-ethyl]-4-piperidyl]-7-isopropoxy-imidazo[1,2-a]pyridin-6-yl]-6-(trifluoromethyl)pyridine-2-carboxamide] |
| 100 to 500 nM | CC(C)Oc1cc2nc(C3CCN(CC(=O)N4CCC(c5ccc(NC6CCC(=O)NC6=O)cc5)CC4)CC3)cn2cc1NC(=O)c1ccccc1 (stereo not shown) [Example 56, N-[2-[1-[2-[4-[4-[(2,6-dioxo-3-piperidyl)amino]phenyl]-1-piperidyl]-2-oxo-ethyl]-4-piperidyl]-7-isopropoxy-imidazo[1,2-a]pyridin-6-yl]benzamide] |
| 500 to 1000 nM | CC(C)Oc1cc2nc([C@@H](Cc3ccccc3)NC(=O)CN3CCC(c4ccc(C5CCC(=O)NC5=O)cc4)CC3)cn2cc1NC(=O)c1cccc(C(F)(F)F)n1 (stereo partly drawn) [Example 78, N-[2-[(1R)-1-[[2-[4-[4-(2,6-dioxo-3-piperidyl)phenyl]-1-piperidyl]acetyl]amino]-2-phenyl-ethyl]-7-isopropoxy-imidazo[1,2-a]pyridin-6-yl]-6-(trifluoromethyl)pyridine-2-carboxamide] |
| 100 to 500 nM | CC(C)Oc1cc2nc(CC3CN(C(=O)CN4CCC(c5ccc(C6CCC(=O)NC6=O)cc5)CC4)C3)cn2cc1NC(=O)c1cccc(C(F)(F)F)n1 (stereo not shown) [Example 74, N-[2-[[1-[2-[4-[4-(2,6-dioxo-3-piperidyl)phenyl]-1-piperidyl]acetyl]azetidin-3-yl]methyl]-7-isopropoxy-imidazo[1,2-a]pyridin-6-yl]-6-(trifluoromethyl)pyridine-2-carboxamide] |
| 10 to 100 nM | CC(C)Oc1cc2nn(C3CCN(CC(=O)N4CCC(c5ccc(NC6CCC(=O)NC6=O)cc5)CC4)CC3)cc2cc1NC(=O)c1cccc(C(F)(F)F)n1 (stereo not shown) [Example 49, N-(2-(1-(2-(4-(4-((2,6-dioxopiperidin-3-yl)amino)phenyl)piperidin-1-yl)-2-oxoethyl)piperidin-4-yl)-6-isopropoxy-2H-indazol-5-yl)-6-(trifluoromethyl) picolinamide] |
